The results in this text go back to patent US6395906B1, “Intermediates to pesticidal 1-arylpyrazoles” (Rhone-Poulenc Inc., priority 1995, dated 2002).

What all share (assay type): in vivo
In test [1] the test system is black cutworm (Agrotis ipsilon). In words: Black cutworm systemic test (BCW-Sys). The following applies: soil drench 10.0 ppm, corn seedling clipped ten days after treatment; mortality 4 days after infestation. The source says:
(§1) For cotton aphid systemic tests and black cutwork—systemic tests, the water-acetone-DMF-emulsifier solution was adjusted for a treatment rate of 10.0 ppm soil concentration.
Black cutworm—systemic test (BCW-Sys): Corn seeds were placed on top of the soil surface in pots containing moist soil. The test compound solution was applied as a drench to the top of the soil and seeds for a treatment rate equivalent to 10.0 ppm soil concentration. As an untreated control, an aliquot of water-acetone-DMF-emulsifier solution containing no test compound was applied in a similar manner. The soil surface and seeds were covered with moist soil. The pots were held in the greenhouse for the duration of the bioassay. Ten days after treatment, the corn seedling was clipped and placed in a plastic cup with 2 late second to early third instar black cutworm larvae. Mortality was assessed visually 4 days after infestation.

For test [2], the system named is cotton aphid (Aphis gossypii). In words: Cotton aphid (CA) foliar spray test. As to conditions: cotton plants wet to runoff, 100 or 500 ppm; dead aphids counted after three days. On the procedure: (§2) For the tick, aphids, souther armyworm, tobacco budworm, house fly, Mexican bean beetle, American cockroach, cat flea, souther corn rootworm, western corn rootworm, black cutworm, and southern root-knot nematode, a solution or suspension was prepared by adding the test compound to a solution of dimethylformamide, acetone, emulsifiers which are alkylaryl polyether alcohols organic sulfonates, and water. The result was a 100 or 500 ppm concentration of the test compound.
Buckthorn aphid (BA) or cotton aphid (CA): Adult and nymphal stages of buckthorn or cotton aphid were reared on potted dwarf nasturtium or cotton plants, respectively. Plants infested with 100-150 aphids were wet to runoff with the 100 or 500 ppm test compound formulation. As an untreated control, a water-acetone-DMF-emulsifier solution containing no test compound was also applied to runoff to infested plants. The treated plants were stored for one day for buckthorn aphid and three days for cotton aphid, after which the dead aphids were counted.

In test [3] the test system is western corn rootworm (Diabrotica virgifera virgifera). In words: Western corn rootworm (WCRW) soil test. The following applies: soil concentration 0.15 or 0.5 ppm; neonate larvae, mortality six days after infestation. The protocol:
as §2
For the western corn rootworm test, the water-acetone-DMF-emulsifier solution was adjusted for a treatment rate of 0.15 or 0.5 ppm.
Western corn rootworm (WCRW): The 500 ppm test formulation was applied to dry sandy loam soil contained in a glass jar for a soil concentration of 0.15 or 0.5 ppm. As an untreated control, an aliquot of a water-acetone-DMF-emulsifier solution containing no test compound was applied in a similar manner. After incubating covered for 24 hours, the soil was mixed and four germinated corn seedlings were added to the jar. Ten neonate western corn rootworm larvae were placed in the jar. Six days after infestation, mortality was assessed by Berlese funnel extraction.

The subject of test [4] is greenbug aphid (Schizaphis graminum). Nature of the test: Greenbug aphid systemic test (GA-Sys). The following applies: soil drench 10 or 25 ppm, sorghum; aphid control rated one and three days after infestation. The text has this:
For the greenbug aphid systemic test, the water-acetone-DMF-emulsifier solution was adjusted for a treatment rate of 10 or 25 ppm soil concentration.
Greenburg aphid—systemic test (GA-Sys): Sorghum seeds were placed on top of the soil surface in pots containing moist soil. The test compound solution was applied as a drench to the top of the soil and seeds for a treatment rate equivalent to 10 or 25 ppm soil concentration. As an untreated control, an aliquot of a water-acetone-DMF-emulsifier solution containing no test compound was applied in a similar manner. The soil surface and seeds were covered with moist soil. The pots were held in the greenhouse for the duration of the bioassay. When the sorghum seeds germinated, greenbug aphids were sprinkled evenly over the sorghum pots to about 50 aphids per pot. The plants were rated for aphid control one and three days after infestation.

For test [5], the system named is tobacco budworm (Heliothis virescens). Nature of the test: Tobacco budworm (TBW) treated cotton leaf test. As to conditions: cotton leaves, 100 ppm; second instar larvae, five days. On the procedure:
as §2
Tobacco budworm (TBW): Cotton leaves were wet to runoff with the 100 ppm test compound formulation. As an untreated control, a water-acetone-DMF-emulsifier solution containing no test compound was also applied wet to runoff to cotton leaves. Ten randomly selected second instar tobacco budworm larvae were introduced into plastic containers in which moist dental wicks and the dry treated leaves had been placed. The cups were closed and held for five days. Larvae which were unable to move the length of the body, even upon stimulation by prodding, were considered dead.

The test system of test [6] is Mexican bean beetle (Epilachna varivestis). Nature of the test: Mexican bean beetle (MBB) treated bean leaf test. As to conditions: bean leaves, 100 or 500 ppm; second instar larvae, five days. On the procedure:
as §2
(§3) Southern armyworm (SAW), Mexican bean beetle (MBB): Bean leaves were wet to runoff with the 100 or 500 ppm test compound formulation. As an untreated control, a water-acetone-DMF-emulsifier solution containing no test compound was also applied wet to runoff to bean leaves. Five or six randomly selected second instar southern armyworn larvae or Mexican bean bettle larvae were introduced into each plastic container with the dry treated leaves. The container was closed and held for five days. Larvae which were unable to move the length of the body, even upon stimulation by prodding, were considered dead.

For test [7], the system named is American cockroach (Periplaneta americana). Nature of the test: American cockroach (ACR) treated food pellet test. As to conditions: food pellets with 500 ppm formulation; nymphs, contact and feeding mortality 1 and 5 days after infestation. The protocol:
as §2
American cockroach (ACR): Cat food or dog food pellets were added to jars containing 1-2 mls of the 500 ppm test formulation. As an untreated control, an aliquot of a water-acetone-DMF-emulsifier solution containing no test compound was applied in a similar manner. After 48 hours, roach nymphs were added to the jar. Contact and feeding mortally was assessed 1 and 5 days after infestation.

The test system of test [8] is cotton aphid (Aphis gossypii). Nature of the test: Cotton aphid systemic test (CA-Sys). The following applies: soil drench 10.0 ppm, aphid control rated three and six days after infestation.
Description: as §1
Cotton aphid—systemic test (CA-Sys): Cotton seeds were placed on top of the soil surface in pots containing moist soil. The test compound solution was applied as a drench to the top of the soil and seeds for a treatment rate equivalent to 10.0 ppm soil concentration. As an untreated control, an aliquot of a water-acetone-DMF-emulsifier solution containing no test compound was applied in a similar manner. The soil surface and seeds were covered with moist soil. The pots were held in the greenhouse for the duration of the bioassay. When the cotyledons of the cotton were expanded (approximately 7 days after planting), the cotton was infested with approximately 25 cotton aphids (mixed population). The plant were rated for aphid control three and six days after infestation.

Test [9] has as its system southern root-knot nematode (Meloidogyne incognita). In words: Southern root-knot nematode (SRKN) soil test. As to conditions: soil treatment 23 kg/ha; tomato or cotton root galling rated after 2-3 weeks. The protocol: as §2
For the southern root-knot nematode tests, the water-acetone-DMF-emulsifier solution was adjusted for a treatment rate of 23 kg/ha soil concentration.
Southern root-knot nematode (SRKN): Eggs and second stage juveniles (J2s) of southern root-knot nematodes were obtained from infected roots of reared tomato plants. Pots containing moist soil were treated with the test compound solution for a treatment rate of 23 kg/ha. As an untreated control, an aliquot of a water-acetone-DMF-emulsifier solution containing no test compound was applied in a similar manner. Immediately after treatment, eggs or J2s of southern root-knot nematode were added to the treated soil. For test with cotton, the seeds were placed on top of the soil the day of treatment and inoculation. For the tests with tomato, the seedlings were transplanted in the pot three days after treatment. The pots were kept in the greenhouse for 2-3 weeks. At the termination of the test, roots of the tomato or cotton seedlings were evaluated for galling on a rating scale from 1 to 5 with one equal to severe galling, relative to untreated control, and five to no galling, i.e., complete control.

Test [10] concerns southern corn rootworm (Diabrotica undecimpunctata howardi). In words: Southern corn rootworm (SCRW) soil test. The following applies: soil concentration 2.5, 5, 6.75 or 10 ppm; mortality eight days after infestation. The protocol:
as §2
For southern corn rootworm and black cutworm tests, the water-acetone-DMF-emulsifier solution was adjusted for a treatment rate of 2.5, 5, 6.75 or 10 ppm.
Southern corn rootworm (SCRW), Black cutworm (BCW): Corn seeds were placed in a glass jar and covered with dry sandy loam soil. The 500 ppm test formulation was applied for a soil concentration of 2.5, 5, 6.75 or 10 ppm. As an untreated control, an aliquot of a water-acetone-DMF-emulsifier solution containing no test compound was applied in a similar manner. After incubating covered for 24 hours, the soil was mixed and inoculated with approximately 25 southern corn rootworm eggs. Following an additional 48 hours, two late second to early third instar black cutworms were placed in the jar with a portion of insect diet. Eight days after infestation, mortality was assessed visually for cutworm and by Berlese funnel extraction for rootworm.

For test [11], the system named is southern armyworm (Spodoptera eridania). Nature of the test: Southern armyworm (SAW) treated bean leaf test. As to conditions: bean leaves, 100 or 500 ppm; second instar larvae, five days. On the procedure:
as §2, §3

Test [12] concerns house fly (Musca domestica). Nature of the test: House fly (HF) bait test. As to conditions: sucrose bait, 100 or 250 ppm; adult flies, mortality after 24 hours. The protocol:
as §2
For house fly tests, the water-acetone-DMF-emulsifier solution was adjusted with a 20% by weight aqueous solution of sucrose to provide a final 100 or 250 ppm concentration of the test compound.
House fly (HF): Four to six day old adult house flies were used. The files were immobilized by anesthetizing with carbon dioxide. A bait cup was prepared which contained the 100 or 250 ppm test compound formulation/sucrose solution and one or two absorbent cotton pad(s). As an untreated control, a water-acetone-DMF-emulsifier-sucrose solution containing no test compound was applied in a similar manner. The bait cup was introduced inside the cage prior to admitting 12-25 anesthetized flies. Mortality was assessed after 24 hours.

On to `CC(O)c1c(SC(F)(F)F)c(C#N)nn1-c1c(Cl)cc(C(F)(F)F)cc1Cl` (centres unmarked) [Compound 8, 3-Cyano-1-(2,6-dichloro-4-trifluoromethylphenyl)-5-(1-hydroxy)ethyl-4-trifluoromethylthiopyrazole], for which the BCW-Sys entry in test [1] is reported as “+ (active against 1 or more insects described above up to 100% mortality. This activity is indicated by a “+”)”.
`C=C(OC(C)=O)c1c(S(=O)(=O)C(F)(F)F)c(C#N)nn1-c1c(Cl)cc(C(F)(F)F)cc1Cl` [Compound 21, 3-Cyano-1-(2,6-dichloro-4-trifluoromethylphenyl)-5-(1-acetoxyethenyl)-4-trifluoromethylsulfonylpyrazole]: the CA entry in test [2] is “+ (active against 1 or more insects described above up to 100% mortality. This activity is indicated by a “+”)”. The WCRW entry in [3] is “+ (active against 1 or more insects described above up to 100% mortality. This activity is indicated by a “+”)”. The GA-Sys entry in [4] was “+ (active against 1 or more insects described above up to 100% mortality. This activity is indicated by a “+”)”. Further, the TBW result in test [5] is on record as “+ (active against 1 or more insects described above up to 100% mortality. This activity is indicated by a “+”)”. Besides, the MBB entry in [6] is recorded as “+ (active against 1 or more insects described above up to 100% mortality. This activity is indicated by a “+”)”.
As to `N#Cc1nn(-c2c(Cl)cc(C(F)(F)F)cc2Cl)c(C(O)C(F)(F)F)c1SC(F)(F)F` (centres unmarked) [Compound 17, 3-Cyano-1-(2,6-dichloro-4-trifluoromethylphenyl)-5-(1-hydroxy-2,2,2-trifluoroethyl)-4-trifluoromethylthiopyrazole], the WCRW entry in test [3] is on record as “+ (active against 1 or more insects described above up to 100% mortality. This activity is indicated by a “+”)”. The ACR result in test [7] is recorded as “+ (active against 1 or more insects described above up to 100% mortality. This activity is indicated by a “+”)”. Further, in [8], the CA-Sys entry was “+ (active against 1 or more insects described above up to 100% mortality. This activity is indicated by a “+”)”.
With `N#Cc1nn(-c2c(Cl)cc(C(F)(F)F)cc2Cl)c(CO)c1[S+]([O-])C(F)(F)F` (centres unmarked) [Compound 12, 3-Cyano-1-(2,6-dichloro-4-trifluoromethylphenyl)-5-(hydroxy)methyl-4-trifluoromethylsulfinylpyrazole], the SRKN result in test [9] is “+ (active against 1 or more insects described above up to 100% mortality. This activity is indicated by a “+”)”. Moreover, in test [4], the GA-Sys result is reported as “+ (active against 1 or more insects described above up to 100% mortality. This activity is indicated by a “+”)”. Also, the BCW-Sys result in test [1] was “+ (active against 1 or more insects described above up to 100% mortality. This activity is indicated by a “+”)”.
As for `COC(C#N)c1c([S+]([O-])C(F)(F)F)c(C#N)nn1-c1c(Cl)cc(C(F)(F)F)cc1Cl` (centres unmarked) [Compound 14, 3-Cyano-5-{(1-cyano-1-methoxy)methyl}-1-(2,6-dichloro-4-trifluoromethylphenyl)-4-trifluoromethylsulfinylpyrazole], the SCRW result in test [10] is given as “+ (active against 1 or more insects described above up to 100% mortality. This activity is indicated by a “+”)”. Besides, the CA entry in test [2] is “+ (active against 1 or more insects described above up to 100% mortality. This activity is indicated by a “+”)”. Also, the SRKN result in test [9] is “+ (active against 1 or more insects described above up to 100% mortality. This activity is indicated by a “+”)”. Further, the WCRW result in test [3] was “+ (active against 1 or more insects described above up to 100% mortality. This activity is indicated by a “+”)”. In addition, in test [5], the TBW result is “+ (active against 1 or more insects described above up to 100% mortality. This activity is indicated by a “+”)”. Besides, the SAW entry in test [11] is given as “+ (active against 1 or more insects described above up to 100% mortality. This activity is indicated by a “+”)”. Further, the ACR entry in test [7] is “+ (active against 1 or more insects described above up to 100% mortality. This activity is indicated by a “+”)”. Also, in test [12], the HF result is given as “+ (active against 1 or more insects described above up to 100% mortality. This activity is indicated by a “+”)”.
